Reference: patent publication US20260314598A1, “THE USE OF FLORPYRAUXIFEN-BENZYL AS A SOYBEAN HARVEST AID” (CORTEVA AGRISCIENCE LLC, priority 2022, published 2026)

System: soybean plants
Assay: Field trial of soybean pre-harvest desiccation: visual defoliation after a single spray
Type: in vivo
Settings: for Percentage of defoliation (raw data): single application at R7.2, 100 L/ha spray; for Percentage of defoliation (Abbot's formula): single application at R7.2, adjusted to untreated
Protocol: Field trials were carried out to test the soybean desiccation efficacy of florpyrauxifen-benzyl at 5, 7.5, 10, 15 and 20 g a.i./ha. Soybean plants were sprayed at the R7.2 soybean growth stage.
[…] Herbicides were diluted in water and a single application for each rate (backpack sprayer) was performed employing 100 L/ha of spray solution. The percentage of visual defoliation was assessed at 3, 7 and 10 days after spray application. The significance of treatment effects was evaluated with F-approximate test (α=0.05) and least square means from different treatments were compared with Tukey's test, after adjusting the % defoliation using Abbott's formula (Abbott, W. S., 1925. A method of computing the effectiveness of an insecticide. J. Econ. Entomol. 18:265-267).

[1] = 3 DAA, 370 g ai/ha, untreated 74.4
[2] = 10 DAA, 370 g ai/ha, untreated 89.8

For `CP(=O)(O)CCC(N)C(=O)O` (centres unmarked) [Ammonium glufosinate, ammonium-glufosinate], the “Percentage of defoliation (raw data)” value [1] was 84.9%, the “Percentage of defoliation (Abbot's formula)” value (“Percentage … (Abbot's formula)” for short) (3 DAA, 370 g ai/ha) was 16.4% and the “Percentage of defoliation (raw data)” value (7 DAA, 370 g ai/ha) was 93.9%. The “Percentage … (Abbot's formula)” value (7 DAA, 370 g ai/ha) was 13.9%, the “Percentage of defoliation (raw data)” value [2] was 98.1% and the “Percentage … (Abbot's formula)” value (10 DAA, 370 g ai/ha) was 10.8%.
For `c1cc[n+]2c(c1)-c1cccc[n+]1CC2` [Diquat, diquat], the “Percentage of defoliation (raw data)” value [1] was 95.7%, the “Percentage … (Abbot's formula)” value (3 DAA, 370 g ai/ha) was 31.7% and the “Percentage of defoliation (raw data)” value (7 DAA, 370 g ai/ha) was 98.9%. The “Percentage … (Abbot's formula)” value (7 DAA, 370 g ai/ha) was 20.5%, the “Percentage of defoliation (raw data)” value [2] was 99.8% and the “Percentage … (Abbot's formula)” value (10 DAA, 370 g ai/ha) was 12.9%.
With `COc1c(Cl)ccc(-c2nc(C(=O)OCc3ccccc3)c(Cl)c(N)c2F)c1F` [Florpyrauxifen-benzyl, florpyrauxifen-benzyl] the “Percentage of defoliation (raw data)” value (3 DAA, 5 g ai/ha, untreated 74.4) was 78.8%, the “Percentage … (Abbot's formula)” value (3 DAA, 5 g ai/ha) was 7.4% and the “Percentage of defoliation (raw data)” value (3 DAA, 7.5 g ai/ha, untreated 74.4) was 80.8%. For the same molecule, the “Percentage … (Abbot's formula)” value (3 DAA, 7.5 g ai/ha) was 10.0%, the “Percentage of defoliation (raw data)” value (3 DAA, 10 g ai/ha, untreated 74.4) was 81.3% and the “Percentage … (Abbot's formula)” value (3 DAA, 10 g ai/ha) was 10.7%. The “Percentage of defoliation (raw data)” value (3 DAA, 15 g ai/ha, untreated 74.4) was 82.4%, the “Percentage … (Abbot's formula)” value (3 DAA, 15 g ai/ha) was 12.3% and the “Percentage of defoliation (raw data)” value (3 DAA, 20 g ai/ha, untreated 74.4) was 84.3%. The “Percentage … (Abbot's formula)” value (3 DAA, 20 g ai/ha) was 15.3%, the “Percentage of defoliation (raw data)” value (7 DAA, 5 g ai/ha) was 89.3% and the “Percentage … (Abbot's formula)” value (7 DAA, 5 g ai/ha) was 7.8%. The “Percentage of defoliation (raw data)” value (7 DAA, 7.5 g ai/ha) was 90.8%, the “Percentage … (Abbot's formula)” value (7 DAA, 7.5 g ai/ha) was 9.6% and the “Percentage of defoliation (raw data)” value (7 DAA, 10 g ai/ha) was 91.4%. For the same molecule, the “Percentage … (Abbot's formula)” value (7 DAA, 10 g ai/ha) was 10.4%, the “Percentage of defoliation (raw data)” value (7 DAA, 15 g ai/ha) was 93.0% and the “Percentage … (Abbot's formula)” value (7 DAA, 15 g ai/ha) was 12.7%. For the same molecule, the “Percentage of defoliation (raw data)” value (7 DAA, 20 g ai/ha) was 94.5%, the “Percentage … (Abbot's formula)” value (7 DAA, 20 g ai/ha) was 14.7% and the “percentage of defoliation compared to untreated plants, versus standards” value (7 DAA, rate not restated (15 and 20 g ai/ha in preceding sentence), Tukey's test) was “statistically equivalent to both ammonium-glufosinate and diquat”. For the same molecule, the “Percentage of defoliation (raw data)” value (10 DAA, 5 g ai/ha, untreated 89.8) was 97.1%, the “Percentage … (Abbot's formula)” value (10 DAA, 5 g ai/ha) was 9.5% and the “Percentage of defoliation (raw data)” value (10 DAA, 7.5 g ai/ha, untreated 89.8) was 97.9%. The “Percentage … (Abbot's formula)” value (10 DAA, 7.5 g ai/ha) was 10.4%, the “Percentage of defoliation (raw data)” value (10 DAA, 10 g ai/ha, untreated 89.8) was 97.9% and the “Percentage … (Abbot's formula)” value (10 DAA, 10 g ai/ha) was 10.5%. For the same molecule, the “Percentage of defoliation (raw data)” value (10 DAA, 15 g ai/ha, untreated 89.8) was 98.6%, the “Percentage … (Abbot's formula)” value (10 DAA, 15 g ai/ha) was 11.3% and the “Percentage of defoliation (raw data)” value (10 DAA, 20 g ai/ha, untreated 89.8) was 99.1%. For the same molecule, the “Percentage … (Abbot's formula)” value (10 DAA, 20 g ai/ha) was 11.9% and the “percentage of defoliation compared to untreated plants, versus standard” value (15 and 20 g ai/ha, 3 DAA, F-approximate test (α=0.05), Tukey's test) was “statistically equivalent to ammonium-glufosinate”.
